Results published in US20130071897A1, “METHOD FOR CONTROLLING UNDESIRABLE BYPRODUCTS FORMATION CAUSED BY CONTAMINATING ORGANISMS IN THE PRODUCTION OF ETHANOL FROM SYNGAS” (COSKATA, INC., priority 2011, published 2013).
Several values for one entry are separate records, joined by “and”; a condition that tells them apart may be missing. Equal values may be shown once.

Test system: butyrogen population
Assay: 2-L continuous syngas fermenter with butyrogen-contaminated Clostridium autoethanogenum culture
Type: cell-based
Description: Additional experiments were conducted to determine the effect of the crotonyl derivatives in continuous fermentations containing butyrogen contamination. Compounds A and D were tested in a 2-L fermenter containing a seed culture from a 10,000 gallon bioreactor used in a large scale fermentation run.
To initiate the 2 liter fermentation a seed culture from the large scale fermenter was introduced into the 2 liter fermenter and grown on yeast extract to an OD greater than 1 at which time a substantial production of butyrogens was observed. The 2 liter fermenter was a Sartorius Biostat B Series fermenter that operated as a continuously stirred tank with a mixing speed of 200 rpm. After 24 hours of initial growth a gas stream having a composition 38% CO, 38% H2, 15% C02 and the balance CH4 was introduced into the fermenter. The fermentation was conducted at a temperature of 37° C., a pH of 5.30±0.05 and contained approximately 2 liters of fermentation media having a composition found in Table 8. Fresh fermentation media was continually added to the 2 liter fermenter at rate sufficient to establish a mean cell retention time of 5.8 days. The fermentation was allowed to progress and different concentrations of the compounds A and D were added to the fermentation as intermittent injections at different times. Each injection was allowed to wash out of the fermenter before next injection. The presence of acetate and butyrate compounds in the fermenter along with the OD of the fermentation media are shown in FIG. 3.
After approximately 500 hours of fermenter operation compound A was added directly into the fermenter to a concentration of 500 ppm when the OD was 1.82 and butyrate concentration was 4.5 g/L. Following introduction of the compound, the OD decreased rapidly by almost 50% in the first 24 hours and the butyrate concentration decreased by 20% in the same time period. Also in the first 24 hours the butanol content increased rapidly by 6-fold to 0.68 g/L, indicating rapid conversion of the butyric acid to butanol. The rate of conversion of the butyric acid and the dilution rate of the media combined to dramatically decrease the butyrate production rate until it was brought down to zero within 80 hours of initially adding compound A. (See FIG. 4) In addition the OD continued to decrease to a low of 0.54 after 80 hours.
After approximately 700 hours of fermenter operation and the washout of the first 500 ppm addition of compound A, another 50 ppm of compound A was added directly into the fermenter. A decrease in OD and butyrate concentration (See FIG. 3) followed the 50 ppm addition and continued for at least for the first 3 days.
After approximately another 8 days and the washout of the 50 ppm addition of compound A, the butyrate concentration increased to 2 g/L. At this time another 100 ppm of compound A was added directly into the fermenter approximately 890 hours into the run. […] After about 24 hours, the butyrate concentration began to decrease again declining almost 50% over the next 4 days. (See FIG. 3)
Fermenter operation was continued under the same operating conditions following the 100 ppm addition of compound A. After allowing 20 days for the complete wash out of compound A, 100 ppm of compound D was added directly into the fermenter approximately 1370 hours into the fermenter run. Upon the addition of compound D there was a sharp rise in the ethanol concentration and acetic acid concentration accompanied by a decrease in the butyrate production.
For 12 days after the first injection of compound D into the fermenter, the fermenter was allowed to wash out compound D. Then 500 ppm of compound D was injected directly into the fermenter after about 1660 hours of fermenter operation. (See FIG. 3) The resulting concentrations of the C2 and C4 alcohols and acids from the time of adding the 500 ppm of compound D are shown in Table 10.

[1] = 500 ppm compound A, 0.0 Hr after addition
[2] = 500 ppm compound A, 24.0 Hr after addition
[3] = 500 ppm compound A, 49.0 Hr after addition
[4] = 500 ppm compound A, 80.0 Hr after addition
[5] = 500 ppm compound A, 121.0 Hr after addition
[6] = 500 ppm compound A, 145.0 Hr after addition
[7] = 500 ppm compound A, first 24 hours
[8] = approximately 140 hours after 500 ppm addition of compound A
[9] = 100 ppm compound D at approximately 1370 hours
[10] = 500 ppm compound D, 0 Hr after addition
[11] = 500 ppm compound D, 30 Hr after addition
[12] = 500 ppm compound D, 49 Hr after addition
[13] = 500 ppm compound D, 73 Hr after addition
[14] = 500 ppm compound D, 123 Hr after addition
[15] = 500 ppm compound D, 145 Hr after addition
[16] = 500 ppm compound D, 168 Hr after addition
[17] = 500 ppm compound D, 193 Hr after addition
[18] = 500 ppm compound D, 217 Hr after addition
[19] = 500 ppm compound D, 240 Hr after addition

## CCOC(=O)C=C(C(F)(F)F)C(F)(F)F [Compound A, ethyl 4,4,4-trifluoro-3-(trifluoromethyl)crotonate]
2-L butyrogenic reactor, 500, 50 and 100 ppm trials
  Effect on the butyrogen population shortly after addition: inhibitory and bactericidal effect
50 ppm compound A at approximately 700 hours
  Concentration of ethanol and acetic acid: continued increase
50 ppm compound A at approximately 700 hours, at least first 3 days
  OD and butyrate concentration: decrease
100 ppm compound A at approximately 890 hours
  Ethanol concentration: began to immediately increase
100 ppm compound A at approximately 890 hours, over 4 days, starting about 24 hours after addition
  Decline of butyrate concentration: ~50%
[1]
  Acetic acid: 3.237 g/L
  Butyric acid: 4.5 g/L and 4.503 g/L
  Ethanol: 0.026 g/L
  OD @600 nm: 1.82
  n-Butanol: 0.109 g/L
[2]
  Acetic acid: 2.728 g/L
  Butyric acid: 3.600 g/L
  Ethanol: 0.266 g/L
  OD @600 nm: 1.09
  n-Butanol: 0.68 g/L and 0.681 g/L
[3]
  Acetic acid: 2.333 g/L
  Butyric acid: 3.074 g/L
  Ethanol: 0.255 g/L
  OD @600 nm: 0.76
  n-Butanol: 0.601 g/L
[4]
  Acetic acid: 1.959 g/L
  Butyric acid: 2.542 g/L
  Ethanol: 0.212 g/L
  OD @600 nm: 0.54
  n-Butanol: 0.497 g/L
[5]
  Acetic acid: 2.446 g/L
  Butyric acid: 1.842 g/L
  Ethanol: 0.345 g/L
  OD @600 nm: 0.75
  n-Butanol: 0.513 g/L
[6]
  Acetic acid: 4.082 g/L
  Butyric acid: 1.645 g/L
  Ethanol: 0.441 g/L
  OD @600 nm: 1.17
  n-Butanol: 0.311 g/L
[7]
  Decrease of OD: ~50%
  Decrease of butyrate concentration: 20%
  Increase of butanol content: 6 fold
500 ppm compound A, from initial addition
  Time until butyrate production rate was brought down to zero: ≤ 80 h
[8]
  Acetic acid production: dramatic rise
  Increase in ethanol: over 100%
  OD recovery: nearly recovered to its original level

## O=C(O)C=C(C(F)(F)F)C(F)(F)F [D, 4,4,4-trifluoro-3-(trifluoromethyl)crotonic acid]
[9]
  Butanol concentration: rose temporarily
  Butyrate Production: decrease
  Ethanol concentration and acetic acid concentration: sharp rise
500 ppm compound D
  Inhibition of butyrogens versus homoacetogenic organisms: butyrogens were specifically inhibited whereas the homoacetogenic organisms were not inhibited
[10]
  Acetic acid: 8.72 g/L
  Butyric acid: 1.51 g/L
  EtOH: 0.55 g/L
  OD @600 nm: 1.40
  n-Butanol: 0.21 g/L
[11]
  Acetic acid: 8.48 g/L
  Butyric acid: 1.47 g/L
  EtOH: 0.61 g/L
  OD @600 nm: 1.35
  n-Butanol: 0.23 g/L
[12]
  Acetic acid: 8.64 g/L
  Butyric acid: 1.44 g/L
  EtOH: 0.69 g/L
  OD @600 nm: 1.23
  n-Butanol: 0.26 g/L
[13]
  Acetic acid: 8.56 g/L
  Butyric acid: 1.37 g/L
  EtOH: 0.68 g/L
  OD @600 nm: 1.12
  n-Butanol: 0.26 g/L
[14]
  Acetic acid: 8.72 g/L
  Butyric acid: 1.41 g/L
  EtOH: 0.53 g/L
  OD @600 nm: 0.92
  n-Butanol: 0.19 g/L
[15]
  Acetic acid: 8.75 g/L
  Butyric acid: 1.36 g/L
  EtOH: 0.88 g/L
  OD @600 nm: 1.12
  n-Butanol: 0.26 g/L
[16]
  Acetic acid: 8.83 g/L
  Butyric acid: 1.11 g/L
  EtOH: 0.95 g/L
  OD @600 nm: 1.38
  n-Butanol: 0.28 g/L
[17]
  Acetic acid: 8.86 g/L
  Butyric acid: 1.12 g/L
  EtOH: 0.87 g/L
  OD @600 nm: 1.18
  n-Butanol: 0.24 g/L
[18]
  Acetic acid: 9.05 g/L
  Butyric acid: 1.13 g/L
  EtOH: 0.84 g/L
  OD @600 nm: 1.24
  n-Butanol: 0.21 g/L
[19]
  Acetic acid: 9.21 g/L
  Butyric acid: 1.17 g/L
  EtOH: 0.82 g/L
  OD @600 nm: 1.25
  n-Butanol: 0.21 g/L
